Measured values taken from patent US20020188323A1, “Methods, systems and devices for in vivo electrochemical production of therapeutic agents” (Remon Medical Technologies Ltd., priority 2001, published 2002).

What was measured:
[1] = system: cells; details: cited from earlier work
[2] = system: human endothelial cells; assay: Effect of hypochlorite on human endothelial cells (Vissers et al.); type: cell-based
Description: Hypochlorite and hydrogen peroxide are strong oxidants and are extensively used as antiseptic agents. Hydrogen peroxide is routinely used as an antiseptic agent in cases of external wounds. Hypochlorite is used as an antiseptic agent during, for example, dental root treatment. Both hypochlorous acid and hydrogen peroxide are well-known disinfectants. Hypochlorite is widely used for treatment of drinking water and as a bactericide. Both hypochlorite and hydrogen peroxide have cytotoxic activity at concentrations of several ppm. Vissers et al. tested the effect of hypochlorite on cells. They noticed a necrosis threshold of 20-40 nmole HClO per 1.2×10^5 cells, which translates approximately into 2 ppm concentration. Transient growth (proliferation) inhibition occurred at lower concentrations of 5 nmole, or about 0.2-0.3 ppm. See, “Hypochlorous acid causes caspase activation and apoptosis or growth arrest in human endothelial cells”, by Margret C. M. Vissers, Juliet M. Pullar and Mark B. Hampton, Biochem. J. (1999) vol. 344, pp. 443-449. Schraufenstatter et al. discuss the effect of hypochlorite on P388D1 murine macrophage-like tumor cells in mice. They show cell damage at 0.5-1 ppm hypochlorite and cell death from about 4 ppm hypochlorite and up. […]

[3] = Dissociation of HClO; type: physicochemical; details: −log Ka
Description: The dissociation constant of HClO or, in other words, the equilibrium constant of the reaction HClO→H^++ClO^−[6] is 3.7×10^−8.
Thus, the pKa of the reaction (i.e., −logka) equals 7.4. It is well known that when the pH of a solution equals the pKa of an acid dissolved therein, at all times, half of the acid molecules are dissociated. Since the blood pH value equals 7.4 half of the HClO is dissociated to H^+ and ClO^−.

[4] = system: human endothelial cells; details: cited from earlier work
[5] = system: P388D1 murine macrophage-like tumor cells; details: cited from earlier work
[6] = system: viruses and bacteria; details: cited from earlier work

Compound | concentration with cytotoxic activity [1] | transient growth (proliferation) inhibition as concentration ([2]; equivalent of 5 nmole) | necrosis threshold as concentration ([2]; translated from nmole per 1.2×10^5 cells) [ppm] | pKa [3] | necrosis threshold [4] | transient growth (proliferation) inhibition ([4]; lower concentrations than necrosis) [nmol] | concentration causing cell damage [5] | concentration causing cell death [5] [ppm] | level required to kill all viruses and bacteria [6] [ppm]
OO [hydrogen peroxide] | several |  |  |  |  |  |  |  | 
OCl [hypochlorite, hypochlorous acid] | several | 0.2-0.3 ppm | ~2 | 7.4 | 20-40 nmole HClO per 1.2×10^5 cells | 5 | 0.5-1 ppm | ≥ 4 | 40
